One experiment has as its system different cell-lines. As to the kind of experiment: mean IC50 over cell lines and therapeutic index.
A further experiment has as its system rat glioblastoma (C6). As to the kind of experiment: cell viability, glioma C6. The conditions noted are these: for IC50: Table 1A. It counts as cell-based.
Experiment [1] concerns human prostate cancer PC-3. Description: cell viability, prostate PC-3. It counts as cell-based. The conditions noted are these: for inhibition of cell proliferation, PC-3 (in words): 1 μM-100 μM, androgen independent, FIG. 2B; for IC50: Table 1A, read-out: Viability IC50 Prostate PC3.
Experiment [2] has as its system human prostate (LN-CapAp). As to the kind of experiment: cell viability, prostate LN-Cap. It counts as cell-based. The conditions noted are these: for inhibition of cell proliferation, LN-Cap (in words): 1 μM-100 μM, androgen dependent, FIG. 2A; for IC50: Table 1A, read-out: Viability IC50 Prostate LN-Cap. As to the method: The effect of trifluoperazine and flupentixol was studied in two cell-lines of human prostate cancer: androgen dependent (LN-Cap) and androgen independent (PC-3).
(§1) Cyclic antidepressants at varying concentrations (between 10PM and 100 μM) was applied to neuroblastoma SH-SY5T, 3LL lung carcinoma, prostate (LN-CapAp), melanoma B16, and cell viability was determined as described above.

A further experiment concerns mouse melanoma (B-16). Description: cell viability, melanoma B16. It counts as cell-based. Here is the method:
as §1

The next experiment has as its system mouse lung sarcoma (3LL). As to the kind of experiment: cell viability, lung 3LL. It counts as cell-based. The conditions noted are these: for IC50: Mus musculus, Table 1B, read-out: Cell viability IC50 Lungs Sarcoma 3LL. Here is the method: In another experiment the effect of clotiapine at the same concentrations on the viability of mouse lung carcinoma (3LL) cells was determined.
as §1

Experiment [3] has as its system human neuroblastoma (SH-SY5T). Description: cell viability, neuroblastoma SH-SY5T. It counts as cell-based. The conditions noted are these: Homo sapiens. As to the method:
The effect of paroxetine on primary tissue cultures was also evaluated. […] The viability of the cells after treatment with paroxetine was determined by neutral red (NR) technology 24 hr. post treatment.
as §1

For experiment [4], the system named is mouse embryo whole brain culture. As to the kind of experiment: primary tissue culture, whole brain. It counts as cell-based. The conditions noted are these: read-out: IC50 whole brain tissue.
In experiment [5] the test system is human neuroblastoma (SK-N-SH). As to the kind of experiment: cell viability (neutral red, Almar Blue, Hoechst dye), neuroblastoma SK-N-SH. It counts as cell-based.
A further experiment has as its system HaCat I5 keratinocytes. Description: keratinocyte viability, Neutral red, HaCat I5. It counts as cell-based, human. The conditions noted are these: for IC50: Homo sapiens, HaCaT; for cell viability HaCat I5 (in words): 5-100 μM, 24 hr, Neutral red, FIG. 13B, 15B. As to the method: (§2) The drugs were administered at concentrations within the range of 5-100 μM and cell viability was measured 24 hr post-administration by Neutral red staining. The efficiency of the agents against viability of the cell lines was evaluated also by comparison with two commonly used anticancer agents (Doxorubicin and 5-fluorouracil (5-FU)) at equimolar concentrations.

The subject of another experiment is HaCat keratinocytes. As to the kind of experiment: keratinocyte viability, Neutral red, HaCat. It counts as cell-based, human. The conditions noted are these: for IC50: Homo sapiens, HaCaT; for cell viability HaCat (in words): 5-100 μM, 24 hr, Neutral red, FIG. 13A, 15A. As to the method: as §2
The subject of experiment [6] is mouse Lewis lung carcinoma (3LL). As to the kind of experiment: in vivo effect on Lewis lung carcinoma (3LL) in mice. The conditions noted are these: 3LL inoculated C57 mice, i.p. daily, thioridazine 15 mg/kg, others 30 mg/kg. Here is the method:
Female C57 black mice aged 4 weeks were used in order to evaluate the in vivo effect of cyclic psychotropic agents on tumor cells. In particular, animals were divided into 5 groups (6-8 mice each). Animals were inoculated with mouse Lewis lung carcinoma (3LL, 0.5 million each) by i.v. injection to the tail vein and then treated by i.p. injection daily for 3 weeks with the following different agents
(5) Paroxetine (30 mg/kg).
During the treatment period animals were inspected daily and their body weight registered twice a week. […] After the four weeks of treatment the mice were sacrificed and their lungs dissected and weighted.

The subject of experiment [7] is doxorubicin resistant neuroblastoma cells (SH-SY5T). Description: sensitization to doxorubicin, doxorubicin resistant neuroblastoma SH-SY5T. It counts as cell-based, human. The conditions noted are these: dose dependant, FIG. 6E, 6F.
The mark [8] stands for this setting: Mus musculus, Table 1A, read-out: Viability IC50 Melanoma B16.
[9] abbreviates: primary culture, data not shown.
The mark [10] stands for this setting: Mus musculus, Table 1B, read-out: Cell viability IC50 Melanoma 16B.

Where two headings read alike, the source gives them in different places. Where only a bound is given, the exact number is not on record here.

From patent publication US20040029860A1, “Anti-proliferative drugs” (priority 2000, published 2004) come the findings set out here.

Procedure for Melanoma B16 cells: Mice C57 black females ages 5-7 weeks were used. Mice were inoculated with Melanoma B16 cells and divided randomly (7-8/cage). Animals were divided into three groups:
1. Control-B16 cells with no therapy;
2. Treatment with doxorubicin 4 mg/kg i.p given once (3 days later).

Consider `CN1CCN(CCCN2c3ccccc3Sc3ccc(C(F)(F)F)cc32)CC1` [Trifluoperazine], for which the IC50 with different cell-lines (read-out: IC50 Mean ± SD) came to 16.7 ± 1.9 µM; in the experiment with rat glioblastoma (C6) (Rattus norvegicus), 14 µM; in [1] (Homo sapiens), 19 µM; in experiment [2] (Homo sapiens, LNCaP), 18 µM; with mouse melanoma (B-16) (setting [8]), 16 µM. Besides, the “inhibition of cell proliferation, PC-3 (in words)” value in [1] was “effective in inhibition of cell proliferation”. For the same molecule, the “inhibition of cell proliferation, LN-Cap (in words)” value in [2] is recorded as “effective in inhibition of cell proliferation”.

On to `CN(C)CCCN1c2ccccc2CCc2ccccc21` [Imipramine], for which the IC50 in the experiment with mouse lung sarcoma (3LL) is 12 µM; in the experiment on different cell-lines (read-out: IC50 Mean +/− SD), 38.5 µM; in experiment [3] (Table 1B, read-out: Cell viability IC50 Neuroblastoma SH-SY5T) it was 69 µM.

For the molecule `O=C(CCCN1CCC(O)(c2ccc(Cl)cc2)CC1)c1ccc(F)cc1` [Haloperidol], the IC50 in [4] (setting [9]) is > 200 µM.

On to `CN(C)CCCN1c2ccccc2Sc2ccc(Cl)cc21` [Chlorpromazine], for which the IC50 with different cell-lines (read-out: IC50 Mean ± SD) was determined as 45.7 ± 33.3 µM; in experiment [3] (Table 1A, read-out: Viability IC50 Neuroblastoma SH-SY5T), 15 µM; in the experiment on rat glioblastoma (C6) (Rattus norvegicus), 22 µM; in the experiment with mouse melanoma (B-16) (setting [8]) it was 46 µM; in experiment [5] (Homo sapiens, SK-N-SH, Table 1A) it was 100 µM.

Regarding `CN1CCN(C2=Nc3ccccc3Sc3ccc(Cl)cc32)CC1` [Clotiapine], the “cell viability, 3LL lung carcinoma (in words)” value with mouse lung sarcoma (3LL) (10 μM-100 μM, FIG. 3B, 4B) was “effective in reducing viability”. In addition, the IC50 was 40 µM in the experiment on mouse lung sarcoma (3LL); > 100 µM in the experiment with HaCat I5 keratinocytes (mean of the determinations, read-out: IC50 HaCat I5 ME); > 100 µM in the experiment on HaCat I5 keratinocytes (single determinations, read-out: IC50 HaCat I5); > 100 µM in the experiment on HaCat keratinocytes (mean of the determinations, read-out: IC50 HaCat ME); > 100 µM with HaCat keratinocytes (single determinations, read-out: IC50 HaCat); 45 µM with mouse melanoma (B-16) (setting [10]).

Take `OCCN1CCN(CC/C=C2/c3ccccc3Sc3ccc(C(F)(F)F)cc32)CC1` [Flupentixiol]: the IC50 turned out to be 18.2 ± 3.2 µM in the experiment with different cell-lines (read-out: IC50 Mean ± SD, Table 1A, mean over the cell lines); 14 µM with rat glioblastoma (C6); 18 µM in [1]; 23 µM in experiment [2]; 18 µM in the experiment on mouse melanoma (B-16) (Table 1A, read-out: Viability IC50 Melanoma B16). Also, the “inhibition of cell proliferation, PC-3 (in words)” value in [1] is recorded as “effective in inhibition of cell proliferation”. Further, the “inhibition of cell proliferation, LN-Cap (in words)” value in [2] is “effective in inhibition of cell proliferation”.

For the molecule `CN1CCN(C2=Nc3cc(Cl)ccc3Nc3ccccc32)CC1` [Clozapine], in [4] (setting [9]), the IC50 was > 200 µM.

For `CN(C)CCC=C1c2ccccc2CCc2ccccc21` [Amitriptiline], the IC50 with different cell-lines (read-out: IC50 Mean +/− SD) and with mouse melanoma (B-16) (setting [10]) was 64 µM throughout.

Regarding `COc1cccc2c1C(=O)c1c(O)c3c(c(O)c1C2=O)C[C@@](O)(C(=O)CO)C[C@@H]3O[C@H]1C[C@H](N)[C@H](O)[C@H](C)O1` [doxorubicin], in the experiment on HaCat I5 keratinocytes, the “cell viability HaCat I5 (in words)” value is on record as “only the HaCat (non tumorigenic) cells responded”. Moreover, the “cell viability HaCat (in words)” value in the experiment on HaCat keratinocytes is listed as “same equimolar IC50 levels as for thioridazine”. For the same molecule, in the experiment with Melanoma B16 cells (Table 2, of 7 total), the “Confluent lung metastases (number of mice)” value turned out to be 3, the “Early death (number of mice)” value turned out to be 2 and the “Non-confluent lung metastases (number of mice)” value is 2. Moreover, the “number of animals presenting non confluent lungs” value in the experiment with Melanoma B16 cells (after 21 days, B16 control 0/7) is on record as 2/7. Further, in the experiment with Melanoma B16 cells (after 21 days, B16 controls 770+/−95), the lungs weight was 538 ± 137 mg. Further, the “survival / animals died” value in the experiment on Melanoma B16 cells (doxorubicin 4 mg/kg i.p. once, thioridazine 25-35 mg/kg/day via drinking water) was 2/7.

With `CCN1CCCC1CNC(=O)c1cc(S(N)(=O)=O)ccc1OC` (centres unmarked) [Sulpiride], the IC50 in experiment [4] (setting [9]) is > 200 µM. Further, the “Viability IC50 Glioma C6” value in the experiment with rat glioblastoma (C6) (Table 1C) is listed as “Non Toxic”. Besides, the “Viability IC50 Prostate LN-CapAp” value in [2] (Table 1C) is “Non Toxic”. In experiment [5] (Table 1C), the “Viability IC50 Neuroblastoma SK-N-SH” value is on record as “Non Toxic”.

Consider `CNCCC(Oc1ccc(C(F)(F)F)cc1)c1ccccc1` (centres unmarked) [Fluoxetine], for which the “survival rate during four weeks of treatment” value in experiment [6] is 5/7. Moreover, the “lungs weight / tumor size compared to control group” value in [6] (FIG. 5) is given as “effective in reducing tumor size”. In addition, the “cell viability HaCat I5 (in words)” value with HaCat I5 keratinocytes is listed as “effective in reducing cell viability”. The “cell viability HaCat (in words)” value with HaCat keratinocytes was “effective in reducing cell viability”. The “potentiation of doxorubicin toxicity (in words)” value in [7] is listed as “potentiate the toxicity of doxorubicin”.

As to `Cc1nc2n(c(=O)c1CCN1CCC(c3noc4cc(F)ccc34)CC1)CCCC2` [Risperidone], the IC50 in experiment [4] was > 200 µM.

On to `O=c1[nH]cc(F)c(=O)[nH]1` [5-FU, 5-fluorouracil], for which, in the experiment on HaCat I5 keratinocytes, the “cell viability HaCat I5 (in words)” value was “resistant”. Also, in the experiment with HaCat keratinocytes, the “cell viability HaCat (in words)” value is on record as “resistant”.
